Values joined by “and” are separate entries in the source; they are usually repeats but may differ in a detail not shown here. Equal entries are not always repeated.
Key:
Wheat immature embryos = experiment: Wheat embryo germination assay; assay type: in vivo; conditions: for Germinating root length / Germinating shoot length: ten days
Experimental: Wheat immature embryos were exposed to different concentrations of AMPA and N-acetyl-AMPA in a wheat embryo germination assay. MMSO base media was prepared containing 40 grams per liter maltose, 2 grams per liter GELRITE™, MS salts, and vitamins. Salts, vitamins, and maltose were dissolved in 3500 ml water and the pH was adjusted to 5.8. 500 ml was dispensed into a separate bottle along with 1 gram of GELRITE™ and autoclaved for 17 minutes. After the medium had cooled to about 45° C., AMPA or N-acetyl-AMPA was added to a defined concentration. The mixture was poured into six square Sundae cups under sterile conditions and allowed to solidify.
Immature wheat embryos were isolated from twenty day old seedlings (after anther formation) and inoculated into each MMSO media. Each Sundae cup contained nine immature embryo's. Three separate plates were used for each concentration of AMPA (0, 0.1, 0.15, 0.2, 0.25, 0.3, and 1.0 mM) or N-acetyl-AMPA (0, 0.1, 0.3, 1.0, and 3.0 mM). Sundae cups were incubated for ten days and the length of roots and shoots were determined and compared.

transformed corn callus = experiment: [^14C]-glyphosate metabolism assay in corn callus
From the text: A [^14C]-glyphosate metabolism assay was used for determining whether transformed corn callus tissues contain functioning forms of these enzymes. The assay was developed to screen large numbers of corn callus samples. Callus was obtained from Monsanto Company and Dekalb Seed Company corn transformation groups. The Monsanto callus samples, individually designated as callus lines “19nn-nn-nn” in Table 16, were produced from HI II×B73 corn embryos. Callus samples were bombarded with complete covalently closed circular recombinant plant transformation vector plasmid DNA or with linear DNA fragments isolated from such plasmids 25-50 days after embryo isolation. Transformed lines were identified 8-14 weeks after bombardment. These lines were sub-cultured on fresh media every 2 weeks and were 5-7 months old when used in the metabolism assay. The Dekalb callus lines OO, OR, OW, OX, and OY were obtained from HI II×AW embryos. All line designations correspond to the recombinant plasmid or linear fragment used for ballistic transformation of callus tissue as noted in the legend to Table 16.
4.5 mCi of N-phosphono-[^14C]-methylglycine ([^14C]-glyphosate) was obtained from the Monsanto Radiosynthesis group in a 1.5 mM aqueous solution, having a specific radioactivity of 39.4 mCi/mM (5.2×10^5 dpm/microgram). The sample was identified with code number C-2182.2. A stock solution sterilized by filtration through a 0.2-micron Acrodisk (Gelman no. 4192) was prepared by combining 2.5 mL [^14C]-glyphosate (3.3×10^8 dpm) with 2.5 mL of corn callus growth medium (N6 medium) and 5.0 mg of Mon 0818 surfactant. [^14C]-glyphosate in the resulting dose solution was 0.75 mM. The N6 medium was described by Chu et al. (1975) and was prepared using salts and vitamins obtained from Sigma Chemical Company, St. Louis, Mo. Mon 0818 surfactant is ethoxylated tallowamine, the surfactant used in Roundup herbicide. The dose solution was subjected to HPLC analysis as described in Example 2. […] Two additional dose solutions were prepared using these reagents, each of which were scaled three fold to 15 ml volumes based on the preparation method described above.
Under aseptic conditions, corn callus samples were transferred to individual wells of sterile 48-well COSTAR™ cell culture clusters (cat. No. 3548). The individual callus samples were not weighed. However, in several cases the total weight of the callus samples in a 48-well plate was determined. Typically, the average weight of individual callus samples was approximately 200-250 mg. In each assay, a nontransformed callus sample, HI II×B73, was included as a control. 50 μL of dose solution containing 3.3×10^6 dpm of [^14C]-glyphosate was added to each callus sample. 48-well plates were sealed with parafilm and placed in a plastic bag containing a wet paper towel to provide a moist atmosphere. Bags were closed and placed in a dark drawer at 25° C. for 10 days. Each callus sample was subsequently transferred to a labeled microcentrifuge tube (VWR, 1.7-mL, cat. No. 20170-620). 1.0 mL of de-ionized water was added to each tube, and the tubes were closed and placed in round 20-tube floating microcentrifuge racks (Nalge cat. no. 5974-1015). These microfuge tubes were floated in boiling water for 30 minutes, shaken using a vortex mixer, and centrifuged for 5 minutes using a Fisher brand microcentrifuge. 120-μL supernatant samples were removed for analysis by HPLC as described below. The samples were injected using a Waters WISP autoinjector.

[1] = FIG. 3, callus transformed with GOX and AMPA acetyltransferase
[2] = control callus HI II×B73, no inserted genes

Compound: NCP(=O)(O)O [AMPA, N-aminomethyl phosphonic acid]
- Germinating root length (Wheat immature embryos; 0.10 mM): 8.0 ± 2.0 cm
- Germinating shoot length (Wheat immature embryos; 0.10 mM): 11.7 ± 2.5 cm
- Germinating root length (Wheat immature embryos; 0.15 mM): 6.3 ± 1.7 cm
- Germinating shoot length (Wheat immature embryos; 0.15 mM): 11.3 ± 2.1 cm
- Germinating root length (Wheat immature embryos; 0.20 mM): 4.6 ± 2.1 cm
- Germinating shoot length (Wheat immature embryos; 0.20 mM): 9.2 ± 1.8 cm
- Germinating root length (Wheat immature embryos; 0.25 mM): 3.1 ± 1.6 cm
- Germinating shoot length (Wheat immature embryos; 0.25 mM): 8.5 ± 1.8 cm
- Germinating root length (Wheat immature embryos; 0.30 mM): 2.6 ± 1.6 cm
- Germinating shoot length (Wheat immature embryos; 0.30 mM): 6.6 ± 1.8 cm
- germination of immature embryos (Wheat immature embryos; 1.00 mM): eliminated the germination
- Germinating root length (Wheat immature embryos; 1.00 mM): 0.4 ± 0.1 cm
- Germinating shoot length (Wheat immature embryos; 1.00 mM): 0.9 ± 0.1 cm
- concentrations not substantially inhibitory to growth and elongation of immature embryos (Wheat immature embryos; in vivo): under 0.2 mM
- concentrations severely inhibitory to both shoot and root elongation (Wheat immature embryos; in vivo): above 0.2 mM

Compound: N-phosphono-methyl-glycine [Glyphosate]
- N-acetyl-[^14C]AMPA, of total observed [^14C] (transformed corn callus; [1]): 4.54%
- [^14C] AMPA, of total observed [^14C] (transformed corn callus; [1]): 1.71%
- [^14C] glyphosate, of total observed [^14C] (transformed corn callus; [1]): 92.5%
- Percent N-Acetyl-[^14C]-AMPA (transformed corn callus; callus OR516 transformed with pMON32926): 0.50-4.54%
- Percent N-Acetyl-[^14C]-AMPA (transformed corn callus; callus OR516 transformed with pMON32926, listed as [^14C]-glyphosate): 1.91%
- Percent [^14C]-AMPA (transformed corn callus; callus line transformed with pMON32571): 2.89%
- Percent N-Acetyl-[^14C]-AMPA (transformed corn callus; callus line transformed with pMON32573): 0.39%
- Percent N-Acetyl-[^14C]-AMPA (transformed corn callus; callus line transformed with pMON32932): 0.28%
- Percent N-Acetyl-[^14C]-AMPA (transformed corn callus; callus line transformed with pMON32938): 0.21%
- Percent [^14C]-AMPA (transformed corn callus; callus line transformed with pMON32946): 2.51%
- Percent [^14C]-AMPA (transformed corn callus; callus line transformed with pMON32947): 1.99%
- Percent N-Acetyl-[^14C]-AMPA (transformed corn callus; callus line transformed with pMON32952): 0.37%
- Percent N-Acetyl-[^14C]-AMPA (transformed corn callus; callus lines transformed with pMON32571, listed as [^14C]-glyphosate): 0.22% and 0.25%
- Percent N-Acetyl-[^14C]-AMPA (transformed corn callus; callus lines transformed with pMON32931, listed as [^14C]-glyphosate): 0.40% and 0.75% and 0.55%
- Percent [^14C]-AMPA (transformed corn callus; callus lines transformed with pMON32936, listed as [^14C]-glyphosate): 2.29% and 3.05% and 2.15% and 2.06%
- Percent [^14C]-AMPA (transformed corn callus; callus lines transformed with pMON32938, listed as [^14C]-glyphosate): 2.41% and 2.90%
- Percent N-Acetyl-[^14C]-AMPA (transformed corn callus; callus lines transformed with pMON32946, listed as [^14C]-glyphosate): 0.77% and 0.85%
- Percent N-Acetyl-[^14C]-AMPA (transformed corn callus; callus lines transformed with pMON32947, listed as [^14C]-glyphosate): 0.60% and 0.71%
- N-acetyl-[^14C]-AMPA produced (transformed corn callus; [2]): no detectable levels
- [^14C]-AMPA produced (transformed corn callus; [2]): only background levels
